Test results from US20240041830A1, “CIRCULATING BIOMARKERS OF RESPONSE TO PD-1/PD-L1 BLOCKADE AND GSK-3 INHIBITION” (Brown University, priority 2022, published 2024).

Legend:
[1] = system: patient-derived CD8+ T cells; assay: ex vivo cytokine profiling of supernatant (Luminex); format: cell-based, human; conditions: forty-eight hours (1 NM) vs DMSO
Method: (§1) Human cytokine profiling. Human cell line culture supernatants were analyzed using an R&D systems Human Premixed Multi-Analyte Kit (R&D Systems, Inc., Minneapolis, MN, USA) and a Luminex 200 (RRID: SCR_018025) Instrument (LX200-XPON-RUO, Luminex Corporation, Austin, TX, USA) according to the manufacturer's instructions. Sample levels of TNF-α, 4-1BB/TNFRSF9/CD137, IL-8/CXCL8, Ferritin, IFN-β, IL-10, CCL2/JE/MCP-1, VEGF, CXCL13/BLC/BCA-1, IFN-γ, CCL20/MIP-3 α, CCL3/MIP-1 α, CCL22/MDC, CCL4/MIP-1 β, Fas Ligand/TNFSF6, IL-17/1L-17A, IL-2, BAFF/BLyS/TNFSF13B, GM-CSF, CXCLS/ENA-78, TRANCE/TNFSF11/RANK L, CXCL9/MIG, G-CSF, IFN-γ R1/CD119, VEGFR3/Flt-4, C-Reactive Protein/CRP, CXCL11/I-TAC, IL-21, CXCL14/BRAK, IL-6, Fas/TNFRSF6/CD95, TRAIL R3/TNFRSF10C, IL-4, CCL5/RANTES, PD-L1/137-H1, CCL7/MCP-3/MARC, Chitinase 3-like 1, CXCL10/IP-10/CRG-2, IL-1 μ/IL-1F2, IL-7, Prolactin, CCL8/MCP-2, TRAIL R2/TNFRSF10B, M-CSF, IL-15, Granzyme B, IFN-α, TREM-1, IL-12/1L-23 p40, TRAIL/TNFSF10, CCL11/Eotaxin, and 1L-18/1L-1F4. Quantitative analysis with 6 standards and a minimum of 50 counts per bead region was used with the Luminex to generate analyte values reported as picograms/milliliter (pg/mL). Sample concentrations less than the lower limit of detection for each particular analyte were recoded as the lower limit value divided by 10. Sample concentrations above the upper limit of detection for a particular analyte were recoded as the upper limit of detection.
The inventors collected peripheral blood during the patient's best response at fifteen months, corresponding with their lowest concentration of sIL-2 r in the peripheral blood, and isolated CD8+, non-ATLL T cells for further analysis. The inventors then treated these CD8+ cells ex vivo with elraglusib and assessed changes in cytokine, chemokine, and growth factor profiles in the cell culture supernatant using Luminex (LX200) technology and a custom cytokine panel described by Huntington, Louie, Zhou, & EI-Deiry, A high-throughput customized cytokinome screen of colon cancer cell responses to small-molecule oncology drugs. Oncotarget, 12, 1980-1991 (2021).
Treatment of patient-derived CD8+ T cells with elraglusib increases granzyme B, TRAIL, and IFN-gamma secretion while decreasing VEGF, TNF-alpha, and CCL5/RANTES concentrations in cell culture supernatant in comparison to control groups. Patient-derived CD8+ cytotoxic T cells were treated with elraglusib for forty-eight hours (1 NM) or control (DMSO) and cytokine concentration was measured in cell culture supernatants. (Statistical significance was calculated with GraphPad Prism 9.3.1 using unpaired t tests and is denoted on each plot as follows: P>0.05=n.s., P≤0.05=*, P≤0.01=**, P≤0.001=***, and P≤0.0001=**** (N=3).

[2] = system: GFP+ SW480 colorectal cancer cells; assay: immune cell-killing co-culture assay (Example 1); format: cell-based, human
Method: A panel of human colorectal cell lines was chosen to provide a varied mutational background (TP53, KRAS, BRAF, TRK, APC, PIK3CA). Cells were treated with elraglusib at doses up to 50 μM for seventy-two hours to determine IC10, IC30, IC50, and IC70. Cytokine, chemokine, and growth factor levels were analyzed in the tumor cell culture supernatants after treatment at IC10, IC30, IC50, and IC70 for forty-eight hours using a Luminex 200 multiplexing instrument. Co-culture experiments were conducted with GFP+ SW480 colorectal cancer cells and either NK-92 natural killer cells or TALL-104 T cells at various effector/target ratios in a 48-well plate, in the presence or absence of elraglusib.

TALL-104 = assay: 10× single-cell sequencing; format: cell-based, human; conditions: 1 μM, twenty-four hours vs DMSO
Method: (§2) Single-cell RNA sequencing. Single cells were captured and 3′ single-cell gene expression libraries were conducted (Next GEM v3.1) using the 10× Genomics Chromium system by SingulOmics (SingulOmics, New York, NY, USA). Gene expression libraries were sequenced with ˜200 million PE150 reads per sample on Illumina (RRID: SCR_016387) NovaSeq (Illumina, Inc., San Diego, CA, USA). After sequencing, clean reads were then analyzed with human reference genome GRCh38 using Cell Ranger v6.1.2 (RRID: SCR_017344, 10× Genomics, Pleasanton, CA, USA). Data were analyzed and visualized using Loupe Browser (RRID: SCR_018555, 10× Genomics, Pleasanton, CA, USA).
(§3) To determine if there was any heterogeneity in response to drug treatment, the inventors employed a 10× single-cell sequencing analysis on both immune cell lines (TALL-104, NK-92) treated with low-dose 1 μM elraglusib or vehicle control (DMSO) for twenty-four hours. Samples clustered by cell type when aggregate data were visualized using a t-SNE plot (FIG. 3G). […] The inventors noted an increase in immune cell attractant CCL4 in the NK-92 cells and an increase in immune cell chemoattractant CXCR4 in the TALL-104 cells.

NK-92 = assay: 10× single-cell sequencing; format: cell-based, human; conditions: 1 μM, twenty-four hours vs DMSO
Method: as §2, §3

93T449 liposarcoma = assay: Luminex cytokine profiling; format: cell-based; conditions: 0.5 μM, twenty-four hours
Method: as §1
(§4) Saos-2 osteosarcoma and 93T449 liposarcoma cell lines were pretreated at IC50 with elraglusib. The cells were harvested for Western blot analysis after 48 hours of treatment. Both cancer cell lines as well as TALL-104 T-cells and NK-92 NK cells were treated with 0.5 μM elraglusib for twenty-four hours and harvested for Luminex cytokine profiling.

Saos-2 osteosarcoma = assay: Luminex cytokine profiling; format: cell-based; conditions: 0.5 μM, twenty-four hours
Method: as §1, §4

[3] = vs controls without drug treatment

Cn1cc(C2=C(c3coc4ccc(F)cc34)C(=O)NC2=O)c2cc3c(cc21)OCO3 [elraglusib]
decrease: CHI3L1 expression (TALL-104) | CHI3L1 expression (NK-92)
increase: CD69 expression (TALL-104) | CXCR4 expression (TALL-104) | CCL4 expression (NK-92) | CD69 expression (NK-92) | TGF-α (93T449 liposarcoma) | TGF-α (Saos-2 osteosarcoma) | IL-6 (Saos-2 osteosarcoma; only Saos-2)
increases: IFN-gamma secretion [1] | TRAIL secretion [1] | granzyme B secretion [1]
bolstered cell-killing: cell-killing after pre-treatment of the target tumor cells ([2]; pre-treatment of tumor cells, but not effector immune cells)
decreasing: CCL5/RANTES concentration in supernatant [1] | TNF-alpha concentration in supernatant [1] | VEGF concentration in supernatant [1]
significant increase: T cell (TALL-104) killing of colorectal cancer cells [2, 3] | natural killer (NK-92) cell killing of colorectal cancer cells [2, 3]
